The source of these data is patent publication US9822103B2, “Inhibitors of lysine methyl transferase” (priority 2013, dated 2017).

This test deals with recombinant EZH2-641F complex (EZH2 Y641F/EED/SUZ12/RbAp48/AEBP2) (Homo sapiens (Human), UniProt Q15910, Y641F). The test is described as follows: EZH2 Histone Methyl Transferase Assay (scintillation proximity assay). The format is biochemical. The conditions noted are these: 350 nM histone peptide substrate, 500 nM 3H-SAM, 3 hours room temperature. An outline of the steps: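 Radiometric SPA with EZH2 Y641F/EED/SUZ12/RbAp48/AEBP2 complex (5 nM pure or 15 nM in-house), 350 nM biotinylated K(Me2) histone peptide and 500 nM [3H]-SAM in Tris pH 9.0, 3 h at room temperature. Compounds were tested at eleven concentrations; EC50 came from non-linear regression.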
Chain of recombinant EZH2-641F complex (EZH2 Y641F/EED/SUZ12/RbAp48/AEBP2) (Q15910 whole entry Y641F): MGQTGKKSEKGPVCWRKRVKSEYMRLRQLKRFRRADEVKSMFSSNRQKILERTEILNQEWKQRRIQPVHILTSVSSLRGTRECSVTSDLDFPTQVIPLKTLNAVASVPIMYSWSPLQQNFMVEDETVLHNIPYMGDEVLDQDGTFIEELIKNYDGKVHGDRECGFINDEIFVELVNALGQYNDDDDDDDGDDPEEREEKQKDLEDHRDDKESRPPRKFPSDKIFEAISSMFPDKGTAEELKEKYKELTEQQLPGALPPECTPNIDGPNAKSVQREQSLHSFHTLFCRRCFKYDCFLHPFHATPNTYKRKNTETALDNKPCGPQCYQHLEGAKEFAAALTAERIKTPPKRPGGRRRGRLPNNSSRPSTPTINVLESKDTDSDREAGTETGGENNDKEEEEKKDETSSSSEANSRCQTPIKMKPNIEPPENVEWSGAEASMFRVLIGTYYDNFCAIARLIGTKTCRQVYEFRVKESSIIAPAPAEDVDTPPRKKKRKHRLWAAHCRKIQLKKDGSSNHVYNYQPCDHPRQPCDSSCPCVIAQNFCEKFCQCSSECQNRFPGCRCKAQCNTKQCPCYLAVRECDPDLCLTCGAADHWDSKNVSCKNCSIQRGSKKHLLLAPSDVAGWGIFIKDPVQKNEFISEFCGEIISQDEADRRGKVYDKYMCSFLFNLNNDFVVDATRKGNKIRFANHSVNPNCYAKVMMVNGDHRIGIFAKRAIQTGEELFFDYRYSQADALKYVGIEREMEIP
Chain of recombinant EZH2-641F complex (EZH2 Y641F/EED/SUZ12/RbAp48/AEBP2) (O75530 whole entry partner): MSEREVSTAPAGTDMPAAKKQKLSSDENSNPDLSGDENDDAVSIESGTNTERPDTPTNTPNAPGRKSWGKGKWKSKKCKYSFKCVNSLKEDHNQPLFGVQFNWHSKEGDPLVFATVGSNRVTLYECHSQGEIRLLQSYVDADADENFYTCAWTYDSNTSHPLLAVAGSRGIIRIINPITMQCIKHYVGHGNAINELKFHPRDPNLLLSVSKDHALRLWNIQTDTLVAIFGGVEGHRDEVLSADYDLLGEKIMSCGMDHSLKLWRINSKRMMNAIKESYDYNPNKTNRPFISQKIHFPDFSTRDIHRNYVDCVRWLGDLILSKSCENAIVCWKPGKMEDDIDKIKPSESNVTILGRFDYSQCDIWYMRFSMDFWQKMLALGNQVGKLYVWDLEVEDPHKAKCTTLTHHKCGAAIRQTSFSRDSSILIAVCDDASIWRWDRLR
Chain of recombinant EZH2-641F complex (EZH2 Y641F/EED/SUZ12/RbAp48/AEBP2) (Q15022 whole entry partner): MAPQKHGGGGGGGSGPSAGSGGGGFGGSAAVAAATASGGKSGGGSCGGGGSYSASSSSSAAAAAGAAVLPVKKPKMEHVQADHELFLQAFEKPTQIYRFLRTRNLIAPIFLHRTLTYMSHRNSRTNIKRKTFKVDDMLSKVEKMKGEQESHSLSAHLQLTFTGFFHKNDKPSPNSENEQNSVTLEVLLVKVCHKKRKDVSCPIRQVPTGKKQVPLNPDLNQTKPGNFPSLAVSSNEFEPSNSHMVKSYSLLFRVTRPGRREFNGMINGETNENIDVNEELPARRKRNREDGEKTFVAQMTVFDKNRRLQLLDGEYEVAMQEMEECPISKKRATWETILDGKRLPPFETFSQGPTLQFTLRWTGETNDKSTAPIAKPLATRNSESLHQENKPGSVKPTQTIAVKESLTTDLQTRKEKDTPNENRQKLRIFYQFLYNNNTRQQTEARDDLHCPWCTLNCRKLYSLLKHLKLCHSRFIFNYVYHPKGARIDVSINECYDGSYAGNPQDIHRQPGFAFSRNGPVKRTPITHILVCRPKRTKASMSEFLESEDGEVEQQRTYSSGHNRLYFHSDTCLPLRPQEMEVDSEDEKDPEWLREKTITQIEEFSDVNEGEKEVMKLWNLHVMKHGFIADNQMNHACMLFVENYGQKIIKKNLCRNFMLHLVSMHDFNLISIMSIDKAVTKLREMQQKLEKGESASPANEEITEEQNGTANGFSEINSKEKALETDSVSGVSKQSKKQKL
Chain of recombinant EZH2-641F complex (EZH2 Y641F/EED/SUZ12/RbAp48/AEBP2) (Q09028 whole entry partner): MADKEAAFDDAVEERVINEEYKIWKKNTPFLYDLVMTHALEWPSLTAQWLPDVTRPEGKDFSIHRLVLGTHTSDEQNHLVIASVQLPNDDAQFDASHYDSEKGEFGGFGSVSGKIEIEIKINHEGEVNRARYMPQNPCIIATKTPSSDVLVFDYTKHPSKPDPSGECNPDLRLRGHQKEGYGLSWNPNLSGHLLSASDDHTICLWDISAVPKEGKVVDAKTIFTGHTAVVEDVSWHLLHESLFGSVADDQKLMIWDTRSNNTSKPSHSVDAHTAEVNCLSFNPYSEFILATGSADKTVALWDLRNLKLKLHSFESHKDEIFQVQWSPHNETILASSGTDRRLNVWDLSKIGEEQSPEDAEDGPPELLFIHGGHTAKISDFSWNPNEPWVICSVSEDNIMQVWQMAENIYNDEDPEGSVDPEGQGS
Chain of recombinant EZH2-641F complex (EZH2 Y641F/EED/SUZ12/RbAp48/AEBP2) (Q6ZN18 whole entry partner): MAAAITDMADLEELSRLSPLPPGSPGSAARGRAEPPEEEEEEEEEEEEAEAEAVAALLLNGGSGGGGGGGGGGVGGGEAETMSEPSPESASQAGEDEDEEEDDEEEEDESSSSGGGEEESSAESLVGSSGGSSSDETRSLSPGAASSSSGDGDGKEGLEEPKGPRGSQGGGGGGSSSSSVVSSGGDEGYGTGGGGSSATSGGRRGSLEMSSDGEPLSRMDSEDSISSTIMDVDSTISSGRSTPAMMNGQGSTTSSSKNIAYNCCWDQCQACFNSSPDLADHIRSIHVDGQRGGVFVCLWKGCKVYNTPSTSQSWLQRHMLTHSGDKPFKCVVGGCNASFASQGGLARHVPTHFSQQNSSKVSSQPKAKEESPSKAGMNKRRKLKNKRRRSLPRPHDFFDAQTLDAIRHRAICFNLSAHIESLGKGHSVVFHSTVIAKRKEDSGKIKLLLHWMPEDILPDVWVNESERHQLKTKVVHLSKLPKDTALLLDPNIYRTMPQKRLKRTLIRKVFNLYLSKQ
As for `COc1ccc(-c2cc(C(=O)NCc3c(C)cc(C)[nH]c3=O)cc3c2OC(C)CCC3)cn1` (centres unmarked) [Example 52, N-((4,6-Dimethyl-2-oxo-1,2-dihydropyridin-3-yl)methyl)-9-(6-methoxypyridin-3-yl)-2-methyl-2,3,4,5-tetrahydrobenzo[b]oxepine-7-carboxamide], the IC50 is more than 1000 nM.
As for `Cc1cc(C)c(CNC(=O)c2cc(Br)c3c(c2)CC(C(C)C)O3)c(=O)[nH]1` (centres unmarked) [Example 79, 7-Bromo-N-((4,6-dimethyl-2-oxo-1,2-dihydropyridin-3-yl)methyl)-2-isopropyl-2,3-dihydrobenzofuran-5-carboxamide], the figure is more than 1000 nM; as for `COc1ccc(-c2cc(C(=O)NCc3c(C)cc(C)[nH]c3=O)cc3c2OCC32CCCC2)cn1` [Example 76, N-((4,6-Dimethyl-2-oxo-1,2-dihydropyridin-3-yl)methyl)-7-(6-methoxypyridin-3-yl)-2H-spiro[benzofuran-3,1′-cyclopentane]-5-carboxamide], more than 1000 nM; as for `Cc1cc(C)c(CNC(=O)c2cc(-c3ccc(CN4CCCCC4)cc3)c3c(c2)[C@@H]2CCC[C@]2(C)O3)c(=O)[nH]1` (racemic) [Example 67, rac-(3aS,8bS)—N-((4,6-Dimethyl-2-oxo-1,2-dihydropyridin-3-yl)methyl)-3a-methyl-5-(4-(piperidin-1-ylmethyl)phenyl)-2,3,3a,8b-tetrahydro-1H-cyclopenta[b]benzofuran-7-carboxamide], 500 to 1000 nM.
As for `Cc1cc(C)c(CNC(=O)c2cc(C#N)c3c(c2)CC(C)(C)O3)c(=O)[nH]1` [Example 22, 7-Cyano-N-((4,6-dimethyl-2-oxo-1,2-dihydropyridin-3-yl)methyl)-2,2-dimethyl-2,3-dihydrobenzofuran-5-carboxamide], the figure is more than 1000 nM; as for `Cc1cc(C)c(CNC(=O)c2cc3c(c(-c4cnc(N5CCN(C(=O)OC(C)(C)C)CC5)nc4)c2)OC2(CCCC2)C3)c(=O)[nH]1` [Example 73, tert-Butyl 4-(5-(5-(((4,6-dimethyl-2-oxo-1,2-dihydropyridin-3-yl)methyl)carbamoyl)-3H-spiro[benzofuran-2,1′-cyclopentan]-7-yl)pyrimidin-2-yl)piperazine-1-carboxylate], more than 1000 nM; as for `Cc1cc(C)c(CNC(=O)c2cc3c(c(-c4ccc(CN5CCOCC5)cc4)c2)OC(C)C3)c(=O)[nH]1` (centres unmarked) [Example 35, N-((4,6-Dimethyl-2-oxo-1,2-dihydropyridin-3-yl)methyl)-2-methyl-7-(4-(morpholinomethyl)phenyl)-2,3-dihydrobenzofuran-5-carboxamide], more than 1000 nM.
Then `C=C(C)C1(C)Cc2cc(C(=O)NCc3c(C)cc(C)[nH]c3=O)cc(-c3ccc(OC)nc3)c2O1` (centres unmarked) [Example 83, N-((4,6-dimethyl-2-oxo-1,2-dihydropyridin-3-yl)methyl)-7-(6-methoxypyridin-3-yl)-2-methyl-2-(prop-1-en-2-yl)-2,3-dihydrobenzofuran-5-carboxamide], with 500 to 1000 nM.

By IC50 is commonly meant the midpoint of a concentration-inhibition curve.
